Here are results for 17 molecules from PubChem BioAssay (NCI).

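Test compounds were applied to cells in 96-well plates for 48 hours at 5 doses. TGI: concentration producing complete growth inhibition.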

Test systems include T-47D breast; MDA-N; MDA-MB-435; HCC-2998 colon; 786-0 renal; IGROV1 ovarian; MALME-3M melanoma; HCT-15 colon; HT29 colon; EKVX NSCLC; MOLT-4 leukemia.
Test in all cases: NCI-60 cell line screen, 48 h

As for `CC(=O)OCC(OC(C)=O)C(OC(C)=O)C(/C=N/N(C(C)=O)S(=O)(=O)c1ccc(/C=C2\NC(=O)NC2=O)cc1)OC(C)=O` (configuration not stated), the TGI in the assay on T-47D breast, in the assay on MDA-N, in the assay with MDA-MB-435, with HCC-2998 colon, in the assay with 786-0 renal and in the assay with IGROV1 ovarian was > 100 µM throughout. The TGI in the assay with MALME-3M melanoma, in the assay with HCT-15 colon, with HT29 colon, in the assay with EKVX NSCLC and in the assay on MOLT-4 leukemia was > 100 µM throughout.

As to `O=C(Nc1ccccc1)N1CCNC1=S`, the TGI in the assay with T-47D breast is > 100 µM; in the assay on MDA-N, > 100 µM; in the assay on MDA-MB-435, > 100 µM; with HCC-2998 colon it was 85.8 µM; in the assay with 786-0 renal, > 100 µM; in the assay with IGROV1 ovarian, > 100 µM. Moreover, the TGI in the assay with MALME-3M melanoma, in the assay on HCT-15 colon, in the assay on HT29 colon, in the assay with EKVX NSCLC and in the assay on MOLT-4 leukemia was > 100 µM each time.

Regarding `O=C(O)CCC(=O)Nc1ccc2c(c1)S(=O)(=O)N(CC(=O)O)C2=O`, the TGI with T-47D breast, in the assay with MDA-N, in the assay with MDA-MB-435, in the assay with HCC-2998 colon, in the assay on 786-0 renal and in the assay on IGROV1 ovarian was > 100 µM in each case. The TGI with MALME-3M melanoma, with HCT-15 colon, in the assay on HT29 colon, in the assay on EKVX NSCLC and with MOLT-4 leukemia was > 100 µM in each case.

With `O=C(CNC(=O)OCc1ccccc1)NCCCCC(NC(=O)OCc1ccccc1)C(=O)O` (configuration not stated), the TGI in the assay with T-47D breast, with MDA-N, with MDA-MB-435, in the assay on HCC-2998 colon, in the assay on 786-0 renal and in the assay on IGROV1 ovarian was > 100 µM each time. In addition, the TGI with MALME-3M melanoma, with HCT-15 colon, with HT29 colon, in the assay with EKVX NSCLC and with MOLT-4 leukemia was > 100 µM in each case.

In the case of `CC(C#N)Nc1ccc(Oc2ccc(C(C)(C)c3ccc(Oc4ccc(NC(C)C#N)cc4)cc3)cc2)cc1` (configuration not stated), the TGI in the assay on T-47D breast, in the assay with MDA-N, with MDA-MB-435, in the assay with HCC-2998 colon, in the assay with 786-0 renal and in the assay with IGROV1 ovarian was > 100 µM each time. The TGI with MALME-3M melanoma, in the assay with HCT-15 colon, in the assay on HT29 colon, in the assay on EKVX NSCLC and in the assay with MOLT-4 leukemia was > 100 µM in each case.

With `CCOc1ccc(C2c3[nH]c4ccccc4c3CCN2C(=O)c2cccs2)cc1` (configuration not stated), the TGI in the assay with T-47D breast, in the assay with MDA-N, with MDA-MB-435, in the assay with HCC-2998 colon, in the assay with 786-0 renal and with IGROV1 ovarian was > 100 µM throughout. In addition, the TGI in the assay on MALME-3M melanoma, in the assay on HCT-15 colon, with HT29 colon, with EKVX NSCLC and with MOLT-4 leukemia was > 100 µM in each case.

On to `CC[C@@]1(O)C(=O)OCc2c1c(Cl)c1n(c2=O)Cc2cc3ccccc3nc2-1`, for which the TGI in the assay on T-47D breast was > 23 µM; in the assay with MDA-N, > 100 µM; in the assay with MDA-MB-435, > 100 µM; with HCC-2998 colon, 80.6 µM; in the assay with 786-0 renal, 6.68 µM; with IGROV1 ovarian, 42.9 µM. The TGI was 42.1 µM with MALME-3M melanoma; > 81.6 µM in the assay on HCT-15 colon; > 100 µM with HT29 colon; > 70.5 µM in the assay on EKVX NSCLC; 19.3 µM with MOLT-4 leukemia.

In the case of `Cn1c(=O)nc2n(CCO)c(-c3ccccc3)c(-c3ccccc3)nc-2c1=O`, the TGI with T-47D breast, in the assay with MDA-N, with MDA-MB-435, with HCC-2998 colon, in the assay with 786-0 renal and in the assay with IGROV1 ovarian was > 100 µM each time. Moreover, the TGI in the assay on MALME-3M melanoma, in the assay with HCT-15 colon, in the assay with HT29 colon, in the assay on EKVX NSCLC and with MOLT-4 leukemia was > 100 µM throughout.

Regarding `O=c1nc2n(CCO)c(-c3ccccc3)c(-c3ccccc3)nc-2c(=O)[nH]1`, the TGI with T-47D breast, in the assay on MDA-N, in the assay with MDA-MB-435, in the assay on HCC-2998 colon, in the assay with 786-0 renal and in the assay on IGROV1 ovarian was > 100 µM throughout. The TGI in the assay on MALME-3M melanoma, in the assay on HCT-15 colon, in the assay on HT29 colon, with EKVX NSCLC and in the assay with MOLT-4 leukemia was > 100 µM throughout.

Turning to `N#Cc1cnn2c1n[n+]([O-])c1ccc(Cl)cc12`, the TGI with T-47D breast was 37.6 µM; in the assay on MDA-N, 22.7 µM; in the assay on MDA-MB-435, 26.4 µM; in the assay on HCC-2998 colon, 3.46 µM; with 786-0 renal, > 100 µM; in the assay with IGROV1 ovarian, 8.53 µM. The TGI in the assay with MALME-3M melanoma was 19.8 µM; in the assay with HCT-15 colon, 4.36 µM; in the assay on HT29 colon it was 21.7 µM; in the assay with EKVX NSCLC, 7.24 µM; with MOLT-4 leukemia, 17.6 µM.

With `CN1CC=C(OP(=O)(NCc2ccccc2)N(CCCl)CCCl)CC1` (configuration not stated), the TGI in the assay on T-47D breast, in the assay with MDA-N, in the assay on MDA-MB-435, in the assay on HCC-2998 colon, in the assay with 786-0 renal and in the assay on IGROV1 ovarian was > 100 µM throughout. For the same molecule, the TGI with MALME-3M melanoma, in the assay with HCT-15 colon, with HT29 colon, in the assay on EKVX NSCLC and in the assay on MOLT-4 leukemia was > 100 µM throughout.

Regarding `CN(CCO)CC(=O)CC(O)(C(F)(F)F)C(F)(F)F`, the TGI in the assay on T-47D breast, with MDA-N, with MDA-MB-435, with HCC-2998 colon, in the assay with 786-0 renal and in the assay with IGROV1 ovarian was > 100 µM each time. Also, the TGI in the assay on MALME-3M melanoma, with HCT-15 colon, with HT29 colon, in the assay with EKVX NSCLC and in the assay with MOLT-4 leukemia was > 100 µM each time.

On to `CCCCCCN(C(=O)Oc1ccccc1)C(C#N)c1ccccc1` (configuration not stated), for which the TGI in the assay on T-47D breast, in the assay with MDA-N, with MDA-MB-435, in the assay on HCC-2998 colon, in the assay on 786-0 renal and with IGROV1 ovarian was > 100 µM each time. For the same molecule, the TGI in the assay with MALME-3M melanoma, in the assay on HCT-15 colon, with HT29 colon, in the assay on EKVX NSCLC and in the assay on MOLT-4 leukemia was > 100 µM throughout.

In the case of `N#C/C(=C\c1ccc(Cl)cc1)c1nc2ccccc2c(=O)[nH]1`, the TGI in the assay on T-47D breast, in the assay on MDA-N, with MDA-MB-435, in the assay with HCC-2998 colon, in the assay on 786-0 renal and in the assay with IGROV1 ovarian was > 100 µM in each case. The TGI with MALME-3M melanoma, in the assay on HCT-15 colon, with HT29 colon, with EKVX NSCLC and in the assay with MOLT-4 leukemia was > 100 µM in each case.

Take `O=c1cc(-c2ccc(O)c(O)c2)oc2cc(OC3OC(CO)C(O)C(O)C3O)cc(O)c12` (configuration not stated): the TGI with T-47D breast, in the assay with MDA-N, in the assay on MDA-MB-435, in the assay on HCC-2998 colon, in the assay on 786-0 renal and with IGROV1 ovarian was > 100 µM each time. In addition, the TGI in the assay with MALME-3M melanoma, with HCT-15 colon, in the assay on HT29 colon, in the assay with EKVX NSCLC and in the assay on MOLT-4 leukemia was > 100 µM in each case.

Regarding `Cc1ccc2c(c1)C(C1Cc3c(C)cccc3C1=O)OC2=O` (configuration not stated), the TGI with T-47D breast, with MDA-N, with MDA-MB-435, with HCC-2998 colon, with 786-0 renal and in the assay with IGROV1 ovarian was > 100 µM in each case. Further, the TGI in the assay on MALME-3M melanoma, with HCT-15 colon, in the assay on HT29 colon, in the assay on EKVX NSCLC and in the assay on MOLT-4 leukemia was > 100 µM throughout.

For `Cc1sc2ncnc(NCCc3ccccc3)c2c1C`, the TGI stood at 56.6 µM with T-47D breast; 23.8 µM in the assay with MDA-N; 34.6 µM in the assay with MDA-MB-435; 31.1 µM with HCC-2998 colon; 45.7 µM in the assay with 786-0 renal; 32.5 µM in the assay on IGROV1 ovarian. For the same molecule, the TGI with MALME-3M melanoma turned out to be 52.3 µM; in the assay on HCT-15 colon, 87.7 µM; in the assay with HT29 colon it was 45.3 µM; with EKVX NSCLC it was 13.9 µM; with MOLT-4 leukemia, 63.8 µM.
